Measurements reported in patent publication US20140050778A1, “NUCLEIC ACID BINDING COMPOUNDS, METHODS OF MAKING, AND USE THEREOF” (UNIVERSITY OF ROCHESTER, priority 2010, published 2014).
“Also recorded” adds a separate entry of the source.

Assays:
[1] = target: (CUG)10 RNA (SEQ ID NO: 3); assay: SPR binding to immobilized biotinylated RNA; details: SPR, (CUG)10
Description: SPR binding measurements were performed on a Biacore-X instrument (Biacore, Inc., Uppsala, Sweden) with two flow channels (FC1 and FC2). 5′-Biotinylated-RNA sequences, with a C6 linker separating the biotin label from the RNA (Integrated DNA Technologies Inc.) were immobilized on streptavidin (Rockland Immunochemicals) functionalized carboxylmethyl dextran coated sensor chips (CM5, G.E. Healthcare) using EDC/NHS (Advanced ChemTech) coupling chemistry. Filtered (0.2μ), degassed and autoclaved HBS-N buffer (0.01M Hepes, pH=7.4, 0.15 M NaCl) was employed as sample and as running buffer for all SPR experiments. A typical protocol for an experiment is as follows: A CM5 sensor chip was allowed to equilibrate to room temperature and then docked into the instrument. Following priming with running buffer, FC1 and FC2 were conditioned by manual injection of 20 μL aqueous NaOH (50 mM) at a flow rate of 30 μL/min. This was repeated 3 times followed by a wash command. Next, the carboxyl groups on the sensor chip surface in both flow cells were activated separately by injecting 60 μL of freshly prepared 1:1 mixture of EDC (0.4 M) and NHS (0.1 M) at a 5 μL/min flow rate followed by a wash. […] After washing, the surface was deactivated with 60 μL injection of ethanolamine (1M, pH=8.5) at 5 μL/min. The flow cells were primed, and the streptavidin surface in FC1 alone was blocked with 30 μL of biotin (20 μM in HBS-N) at 5 μL/min. The RNA (200 nM in running buffer, HBS-N) to be immobilized was unfolded by heating above its predicted melting temperature in a heated block for 2 min and then allowed to refold by cooling gradually to room temperature. The RNA was then immobilized in FC2 alone to response units ranging from 200-1000 RU using a 5 μL/min flow rate. Representative sensorgrams for the immobilization procedure is shown in FIGS. 2A-B. Two 20 μL aliquots of NaCl (0.5 M) were injected at a 30 μL/min flow rate to remove non-specifically bound RNA. The level of RNA immobilized was noted when the baseline was stable, usually after repeated buffer injection followed by a “prime” command. Binding measurements were performed by flowing various concentrations of the compounds to be analyzed over the immobilized RNA and recording the reference-subtracted (FC2−FC1) sensorgrams. For kinetic analysis, at least five sensorgrams corresponding to different concentrations of compound (usually ranging from 0.05-1 μM in HBS-N) were obtained using flow rates of either 60 μL/min or 30 μL/min. The experimental sensorgrams were globally fitted to a 1:1 binding equation (Biaevaluation software) to obtain association rates (ka) and dissociation rates ([…]) as well as equilibrium binding constants (KD). To measure the binding stoichiometry (n), the relations in equations (1-3) below were used: […]
where RUmax is the maximum resonance response unit at saturation, RURNA is the amount RU of RNA immobilized, n is the stoichiometry, MWcompound and MWRNA are molecular weights of compound and RNA respectively, and RUeq represents the resonance response at steady-state (equilibrium). The response units at equilibrium were subjected to Scatchard binding plots of (r/Cfree vs. r).
This technique allows the association and dissociation rates (ka and kd), equilibrium binding constants (KD), and the binding stoichiometry (n) to be measured in a label-free format (Liu and Wilson, “Quantitative Analysis of Small Molecule-nucleic Acid Interactions with a Biosensor Surface and Surface Plasmon Resonance Detection,” Methods Mol. Biol. 613:1-23 (2010), which is hereby incorporated by reference in its entirety).

mouse C2C12 myoblasts = assay: Cell permeability by fluorescence microscopy; format: cell-based; details: 12 h, 125 μM, intrinsic fluorescence
Description: For cell permeability studies, human fibroblasts or mouse myoblasts grown to 80% confluence were exposed to compounds for 12 hours in a 96 well tissue culture plate. After removal of the culture media (DMEM, with 10% FBS, 1% pen-strep (GIBCO)) the cells were washed twice with PBS to remove excess compounds. Cells were then imaged while in buffer under a fluorescence microscope (Olympus IX70) in the 96-well plate using a 460 nm emission filter.

human fibroblasts = assay: MTT toxicity assay; format: cell-based; details: single substance, concentrations up to 500 μM
Description: (§1) For toxicity studies, mouse myoblasts or human fibroblasts were plated in a 96-well tissue culture plate in DMEM (10% fetal bovine serum, 100 units/ml penicillin, […]) and allowed to grow to approximately 80% confluence at 37° C. under CO2. Varying compound concentrations (up to 1 mM) were incubated with cells (48 hours, 37° C.). Media was then removed, and 3-(4,5-dimethylthiazol-2-yl)-2,5-diphenyltetrazolium bromide (“MTT”) in media was added to each well and incubated at 37° C. for 4 h. After removal of the MTT media, isopropanol (100 pp was added, and absorbance was measured at 600 nm on a Modulus microplate reader (Turner Biosystems).
SPR and fluorescence titration experiments, performed using the protocol described in Examples 3 and 4 above, except using as the target a highly conserved RNA sequence responsible for regulating the production of the Gag-Pol polyprotein via a −1 ribosomal frameshift, which occurs along a “slippery sequence” in gag-pol mRNA (SEQ ID NO: 7). This “frameshift stimulatory sequence” (or “HIV-1 FSS”) consists of an upper stemloop and a lower stem, separated by a purine bulge in the most common types of HIV (FIG. 19). For the fluorescent titration experiments, the upper stemloop of SEQ ID NO: 7 was employed. Cell uptake and toxicity studies were carried out using human fibroblasts according to Example 5 above.

pseudotyped HIV = assay: Pseudotyped HIV assay (HEK293T producer cells, p24 ELISA, HeLa LTR-luciferase); format: cell-based, HIV-1; details: 500 nM, single dose experiments
Description: Initial experiments were conducted to ascertain if compound 14 (designated as compound 5-5 Z in PCT Publ. […]. After transfection, cells were incubated with compound for 20 hours. Viruses produced in untreated and treated cells were recovered from the media and viral titers were assessed using a p24 ELISA assay as described previously by Miller et al., “The Dimerization Domain of HIV-1 Viral Infectivity Factor Vif is Required to Block Virion Incorporation of APOBEC3G,” Retrovirology 4:81 (2007), which is hereby incorporated by reference in its entirety. The same number of virus from control and compound-treated cells were used to infect a HeLa cell line expressing luciferase under the control of an LTR promoter (Platt et al., “Effects of CCRS and CD4 Cell Surface Concentrations on Infections by Macrophagetropic Isolates of Human Immunodeficiency Virus Type 1,” J. Virol. 72:2855-2864 (1998), which is hereby incorporated by reference in its entirety). Viral infectivity was quantified in microtiter well format based on the luciferase signals. […]
This experiment was repeated using a dose-response study to assess the efficacy of compound 18. […] Actin concentration (as measured by Western blot) was used to correct viral titers for any subtle variation in cell number, and to confirm that the observed effect is specific to virus production and not to off-target effects. […]

[2] = system: human fibroblasts / mouse myoblasts; assay: MTT toxicity assay, comparison drugs (FIGS. 13A-B); format: cell-based
Description: as §1

Structure (SMILES) | apparent KD [1] | cell membrane penetration / localization (mouse C2C12 myoblasts) | toxicity (MTT) (human fibroblasts) | decrease in viral titer relative to null control (pseudotyped HIV) | toxicity (MTT) [2]
CCc1nc2cc3ccccc3cc2cc1C(=O)O [Compound 2, 2-ethylbenzo[g]quinoline-3-carboxylic acid] | complete lack of binding | only a modest ability to enter cells; also recorded: not internalized by cells | no toxicity | no effect | 
COc1cccc2c1C(=O)c1c(O)c3c(c(O)c1C2=O)C[C@@](O)(C(C)=O)C[C@@H]3O[C@H]1C[C@H](N)[C@H](O)[C@H](C)O1 [daunorubicin] |  |  |  |  | significant toxicity at all concentrations tested
